Converted amounts (≈) assume the structure as drawn. Where two headings read alike, the source gives them in different places.
Key:
[1] = Dynamic solubility test in water and biological vehicles; type: physicochemical; conditions: 37° C.; for solubility at 1 h / solubility at 2 h / solubility at 4 h / solubility at 24 h: read-out: S: Solubility; for pH: filtrate; for S: Solubility: LOQ: 0.03 μg/mL
Procedure: The dynamic solubility of the crystal form I of compound A (example 11) in water and three biological vehicles was evaluated. […] The samples at each time point were centrifuged (12000 rpm, 5 min) and filtered (0.45 μm PTFE filter), and the HPLC concentration and pH value of the filtrates were measured.
Preparation of simulated gastric fluid (SGF): 0.1 g of NaCl and 0.05 g of Triton X-100 were weighted to a 50 mL volumetric flask, and purified water was added to obtain a clear solution. 67.5 μL of concentrated hydrochloric acid (12 M) was added, and the pH was adjusted to 1.8 with 1 M hydrochloric acid or a 1 M NaOH solution. Purified water was added to a constant volume.
Preparation of simulated intestinal fluid (FaSSIF) in a fasted state: 0.17 g of anhydrous NaH2PO4, 0.021 g of NaOH and 0.31 g of NaCl were weighed to a 50 mL volumetric flask. About 48 mL of purified water was added to obtain a clear solution, and the pH was adjusted to 6.5 with 1 M hydrochloric acid or a 1 M NaOH solution. Purified water was added to a constant volume, and 0.11 g of SIF powder was weighed to obtain a clear solution.
Preparation of simulated intestinal fluid (FeSSIF) in a feeding state: 0.41 mL of glacial acetic acid, 0.20 g of NaOH and 0.59 g of NaCl were weighed to a 50 mL volumetric flask. About 48 mL of purified water was added to obtain a clear solution, and the pH was adjusted to 5.0 with 1 M hydrochloric acid or a 1 M NaOH solution. Purified water was added to a constant volume, and 0.56 g of SIF powder was weighed to obtain a clear solution.

[2] = Stability test of crystal form (purity and crystal form change on storage); type: physicochemical; conditions: for Crystal form change / Purity: 12 days
Procedure: The crystal form I (example 11) was placed at 25° C./60% RH and 40° C./75% RH for 12 days; and then the sample purity was detected, and the crystal form change was observed.

[3] = Dynamic vapor sorption (DVS); type: physicochemical; conditions: 25° C./80% RH
Procedure: A dynamic vapor sorption (DVS) curve is obtained on DVS Intrinsic of Surface Measurement Systems (SMS). The relative humidity at 25° C. is corrected by using the deliquescence points of LiCl, Mg(NO3)2 and KCl.
A free base (9.1 g, 15.3 mmol) of 2-((2-ethyl-6-fluoro-5-(4-(2-(3-hydroxyazetidin-1-yl)-2-oxoethyl)piperazin-1-yl)pyrazolo[1,5-a]pyridin-3-yl)(methyl-d3)amino)-4-(4-fluorophenyl)thiazole-5-carbonitrile (compound A, i.e., compound 3) prepared in example 3 was added to ethanol (50 mL), warmed to 75° C., stirred for 2 h and then dissolved. The mixture was gradually cooled to room temperature under slow stirring, with a large amount of white solids precipitated out, and filtered by suction. The filter cake was washed with ethanol (10 mL), and then dried under vacuum at 40° C. for 24 h to obtain a crystal form I of compound A as a white solid (6.2 g, yield: 68%). […] (initial temperature).

[4] = phase II clinical trial; cited from earlier work

## [2H]C([2H])([2H])N(c1nc(-c2ccc(F)cc2)c(C#N)s1)c1c(CC)nn2cc(F)c(N3CCN(CC(=O)N4CC(O)C4)CC3)cc12 [Compound A Crystal form I, 2-((2-ethyl-6-fluoro-5-(4-(2-(3-hydroxyazetidin-1-yl)-2-oxoethyl)piperazin-1-yl)pyrazolo[1,5-a]pyridin-3-yl)(methyl-d3)amino)-4-(4-fluorophenyl)thiazole-5-carbonitrile]
[1]; fasted-state simulated intestinal fluid (FaSSIF), pH 6.5, thermodynamic from solid, vehicle FaSSIF, 1 h
  solubility at 1 h: 320 µg/mL (≈ 537 µM)
[1]; fasted-state simulated intestinal fluid (FaSSIF), pH 6.5, thermodynamic from solid, vehicle FaSSIF, 2 h
  solubility at 2 h: 270 µg/mL (≈ 453 µM)
[1]; fasted-state simulated intestinal fluid (FaSSIF), pH 6.5, thermodynamic from solid, vehicle FaSSIF, 4 h
  solubility at 4 h: 360 µg/mL (≈ 604 µM)
[1]; fasted-state simulated intestinal fluid (FaSSIF), pH 6.5, thermodynamic from solid, vehicle FaSSIF, 24 h
  solubility at 24 h: 210 µg/mL (≈ 353 µM)
[1]; vehicle FaSSIF, 1 h
  pH: 4.9
[1]; vehicle FaSSIF, 2 h
  pH: 5.0
[1]; vehicle FaSSIF, 4 h
  pH: 4.9
[1]; vehicle FaSSIF, 24 h
  pH: 4.9
[1]; vehicle FeSSIF, 1 h
  pH: 8.5
  S: Solubility: <LOQ
[1]; vehicle FeSSIF, 2 h
  pH: 8.5
  S: Solubility: <LOQ
[1]; vehicle FeSSIF, 4 h
  pH: 8.5
  S: Solubility: <LOQ
[1]; vehicle FeSSIF, 24 h
  pH: 8.5
  S: Solubility: <LOQ
[1]; vehicle H2O, 1 h
  pH: 2.0
[1]; vehicle H2O, 2 h
  pH: 2.2
[1]; vehicle H2O, 4 h
  pH: 2.0
[1]; vehicle H2O, 24 h
  pH: 2.1
[1]; vehicle SGF, 1 h
  pH: 6.4
[1]; vehicle SGF, 2 h
  pH: 6.5
[1]; vehicle SGF, 4 h
  pH: 6.4
[1]; vehicle SGF, 24 h
  pH: 6.4
[1]; simulated gastric fluid (SGF), pH 1.8, simulated gastric fluid, thermodynamic from solid, vehicle SGF, 1 h
  solubility at 1 h: 15 µg/mL (≈ 25.2 µM)
[1]; simulated gastric fluid (SGF), pH 1.8, simulated gastric fluid, thermodynamic from solid, vehicle SGF, 2 h
  solubility at 2 h: 15 µg/mL (≈ 25.2 µM)
[1]; simulated gastric fluid (SGF), pH 1.8, simulated gastric fluid, thermodynamic from solid, vehicle SGF, 4 h
  solubility at 4 h: 14 µg/mL (≈ 23.5 µM)
[1]; simulated gastric fluid (SGF), pH 1.8, simulated gastric fluid, thermodynamic from solid, vehicle SGF, 24 h
  solubility at 24 h: 14 µg/mL (≈ 23.5 µM)
[1]; water, thermodynamic from solid, vehicle H2O, 1 h
  solubility at 1 h: > 5100 µg/mL
[1]; water, thermodynamic from solid, vehicle H2O, 2 h
  solubility at 2 h: > 5200 µg/mL
[1]; water, thermodynamic from solid, vehicle H2O, 4 h
  solubility at 4 h: > 5300 µg/mL
[1]; water, thermodynamic from solid, vehicle H2O, 24 h
  solubility at 24 h: > 5300 µg/mL
[2]; 25° C./60% RH
  Crystal form change: No
  Purity: 99.41 area %
[2]; 40° C./75% RH
  Crystal form change: No
  Purity: 99.44 area %
[2]; before storage
  Initial purity: 99.76 area %
[3]
  water adsorption: 0.20%

## CCc1nc2c(C)cc(N3CCN(CC(=O)N4CC(O)C4)CC3)cn2c1N(C)c1nc(-c2ccc(F)cc2)c(C#N)s1 [GLPG-1690]
[4]
  Curative effect in IPF: good curative effect
